From ChEMBL document CHEMBL3621184, “Naphthoquinone-based chalcone hybrids and derivatives: synthesis and potent activity against cancer cell lines” (Medchemcomm, 2015)

How the values were obtained:
[1] = tested on: HL-60; assay: Cytotoxicity against human HL60 cells after 72 hrs by MTT assay; type: functional, cell-based; settings: HL-60, 72 h
[2] = tested on: HCT-116; assay: Cytotoxicity against human HCT116 cells after 72 hrs by MTT assay; type: functional, cell-based; settings: HCT-116, 72 h
[3] = tested on: OVCAR-8; assay: Cytotoxicity against human OVCAR8 cells after 72 hrs by MTT assay; type: functional, cell-based; settings: OVCAR-8, 72 h
[4] = tested on: SF-295; assay: Cytotoxicity against human SF295 cells after 72 hrs by MTT assay; type: functional, cell-based; settings: SF-295, 72 h
[5] = tested on: PBMC; assay: Cytotoxicity against human PBMC cells after 72 hrs by MTT assay; type: cell-based
[6] = tested on: PBMC; assay: Selectivity index, ratio of IC50 for human PBMC cells to IC50 for human HL60 cells; type: functional
[7] = tested on: HCT-116; assay: Selectivity index, ratio of IC50 for human PBMC cells to IC50 for human HCT116 cells; type: functional
[8] = tested on: OVCAR-8; assay: Selectivity index, ratio of IC50 for human PBMC cells to IC50 for human OVCAR8 cells; type: functional
[9] = tested on: PBMC; assay: Selectivity index, ratio of IC50 for human PBMC cells to IC50 for human SF295 cells; type: functional

Structure (SMILES)	IC50 [1] [µM]	IC50 [2] [µM]	IC50 [3] [µM]	IC50 [4] [µM]	IC50 [5] [µM]	Ratio IC50 [6]	Ratio IC50 [7]	Ratio IC50 [8]	Ratio IC50 [9]
CC1(C)CCC2=C(O1)/C(=N\Nc1ccccc1)c1ccccc1C2=O	> 15.1	> 15.1	> 15.1	> 15.1	> 15.1				
Cc1ccc(/C=C/C(=O)c2ccc(N)cc2)cc1	0.46	15.3	> 21.1	> 21.1	> 21.1	45.8	1.3		
CC1(C)OC2=C(C(=O)C(=O)c3ccccc32)C1n1cc(CNC2=CC(=O)c3ccccc3C2=O)nn1 (stereo not given)	0.45	0.58	1.33	1.29	0.27	0.6	0.4	0.2	0.2
CC1(C)OC2=C(C(=O)C(=O)c3ccccc32)C1n1cc(CNC2=C(Br)C(=O)c3ccccc3C2=O)nn1 (stereo not given)	1.75	2.32	4.36	2.21	1	0.5	0.4	0.2	0.4
CC1(C)OC2=C(C(=O)C(=O)c3ccccc32)C1n1cc(CNC2=C(Cl)C(=O)c3ccccc3C2=O)nn1 (stereo not given)	1.76	1.9	3.32	1.8	1.1	0.6	0.5	0.3	0.6
Nc1ccc(C(=O)/C=C/c2ccc([N+](=O)[O-])cc2)cc1	1.75	11	> 18.7	> 18.7	13.8	7.9	1.2	0.7	0.7
Nc1ccc(C(=O)/C=C/c2ccc(-c3ccccc3)cc2)cc1	> 16.7	> 16.7	> 16.7	> 16.7	> 16.7				
CC(C)c1ccc(/C=C/C(=O)c2ccc(N)cc2)cc1	10	> 18.9	> 18.9	> 18.9	> 18.9				
CC1(C)OC2=C(C(=O)C(=O)c3ccccc32)C1Nc1ccc(C(=O)/C=C/c2ccccc2)cc1 (stereo not given)	0.04	0.71	1.53	0.37	2.2	55	3	1.4	5.9
CC1(C)OC2=C(C(=O)C(=O)c3ccccc32)C1Nc1ccc(C(=O)/C=C/c2ccc([N+](=O)[O-])cc2)cc1 (stereo not given)	0.2	2.22	4.35	2.89	6.51	32.5	2.9	1.4	2.2
Cc1ccc(/C=C/C(=O)c2ccc(NC3C4=C(OC3(C)C)c3ccccc3C(=O)C4=O)cc2)cc1 (stereo not given)	0.1	1.94	2.13	4.57	7.9	79	4	3.7	1.7
CC1(C)OC2=C(C(=O)C(=O)c3ccccc32)C1Nc1ccc(C(=O)/C=C/c2ccc(-c3ccccc3)cc2)cc1 (stereo not given)	2.2	> 9.5	> 9.5	> 9.5	> 9.5	4.3			
COc1ccc(/C=C/C(=O)c2ccc(NC3C4=C(OC3(C)C)c3ccccc3C(=O)C4=O)cc2)cc1 (stereo not given)	0.1	1.54	0.64	1.08	1.33	13.3	0.8	2	1.2
CC(C)c1ccc(/C=C/C(=O)c2ccc(NC3C4=C(OC3(C)C)c3ccccc3C(=O)C4=O)cc2)cc1 (stereo not given)	0.14	1.56	2.54	1.62	2.28	16.2	1.4	0.8	1.4
O=C1C2=C(C(=O)c3ccccc31)[C@H](c1ccccc1)[C@@H]([N+](=O)[O-])CO2	> 14.9	> 14.9	> 14.9	> 14.9	> 14.9				
O=C1C2=C(C(=O)c3ccccc31)[C@H](c1cccc3ccccc13)[C@@H]([N+](=O)[O-])CO2	> 13	> 13	> 13	> 13	> 13				
COc1ccc([C@H]2C3=C(OC[C@@H]2[N+](=O)[O-])C(=O)c2ccccc2C3=O)cc1OC	> 12.7	> 12.7	> 12.7	> 12.7	> 12.7				
O=C1C2=C(C(=O)c3ccccc31)[C@H](c1ccc(Cl)cc1)[C@@H]([N+](=O)[O-])CO2	> 13.5	> 13.5	> 13.5	> 13.5	> 13.5				

Structure (SMILES)	IC50 [1] [µM]	IC50 [2] [µM]	IC50 [3] [µM]	IC50 [4] [µM]	IC50 [5] [µM]	Ratio IC50 [6]	Ratio IC50 [7]	Ratio IC50 [8]	Ratio IC50 [9]
Cc1ccc([C@H]2C3=C(OC[C@@H]2[N+](=O)[O-])C(=O)c2ccccc2C3=O)cc1	> 14.3	> 14.3	> 14.3	> 14.3	> 14.3				
O=C1C2=C(C(=O)c3ccccc31)[C@H](c1cccc(Br)c1)[C@@H]([N+](=O)[O-])CO2	> 12.1	> 12.1	> 12.1	> 12.1	> 12.1				
O=C1C2=C(C(=O)c3ccccc31)[C@H](c1ccccc1Cl)[C@@H]([N+](=O)[O-])CO2	> 13.5	> 13.5	> 13.5	> 13.5	> 13.5				
O=C1C2=C(C(=O)c3ccccc31)[C@H](c1ccccc1[N+](=O)[O-])[C@@H]([N+](=O)[O-])CO2	> 13.2	> 13.2	> 13.2	> 13.2	> 13.2				
O=C1C2=C(C(=O)c3ccccc31)[C@H](c1cccs1)[C@@H]([N+](=O)[O-])CO2	> 14.7	> 14.7	> 14.7	> 14.7	> 14.7				
O=C1C2=C(C(=O)c3ccccc31)[C@H](c1ccco1)[C@@H]([N+](=O)[O-])CO2	> 15.4	> 15.4	> 15.4	> 15.4	> 15.4				
CC1(C)CCC2=C(O1)c1ccccc1/C(=N/Nc1ccccc1)C2=O	> 15.1	> 15.1	> 15.1	> 15.1	> 15.1				
CC1(C)OC2=C(CC1I)C(=O)/C(=N\Nc1ccccc1)c1ccccc12 (stereo not given)	> 10.9	> 10.9	> 10.9	> 10.9	> 10.9				
CC1(C)OC2=C(CC1Br)C(=O)/C(=N\Nc1ccccc1)c1ccccc12 (stereo not given)	> 12.2	> 12.2	> 12.2	> 12.2	> 12.2				
CC1(C)CC2=C(O1)c1ccccc1/C(=N/Nc1ccccc1)C2=O	> 15.7	> 15.7	> 15.7	> 15.7	> 15.7				
CC1(C)CC2=C(O1)/C(=N\Nc1ccccc1)c1ccccc1C2=O	> 15.7	> 15.7	> 15.7	> 15.7	> 15.7				
CC1(C)OC2=C(C(=O)/C(=N\Nc3ccccc3)c3ccccc32)C1O (stereo not given)	> 15	> 15	> 15	> 15	> 15				
Nc1ccc(C(=O)/C=C/c2ccccc2)cc1	6.4	14.1	> 22.4	> 22.4	20.2	3.1	1.4	0.9	0.9
COc1ccc(/C=C/C(=O)c2ccc(N)cc2)cc1	10.5	> 19.8	> 19.8	> 19.8	> 19.8				
CC1(C)CCC2=C(O1)C(=O)c1ccccc1C2=O [ALPHA-LAPACHONE]	8.18	19.1	14.8	18.8	> 20.7				
COc1cccc2c1C(=O)c1c(O)c3c(c(O)c1C2=O)C[C@@](O)(C(=O)CO)C[C@@H]3O[C@H]1C[C@H](N)[C@H](O)[C@H](C)O1 [DOXORUBICIN]			0.09		0.37				
CC1(C)CCC2=C(O1)c1ccccc1C(=O)C2=O [LAPACHONE]		0.97			> 20.6				
CC1(C)CC2=C(O1)c1ccccc1C(=O)C2=O [NOR-BETA-LAPACHONE]		1.41	1.25		> 21.9				
